The values that follow come from EP1928842B1, “4-PHENYL-6-SUBSTITUTED-PYRIMIDINE-2-CARBONITRILE DERIVATIVES” (priority 2005, dated 2007).

Molecules are shown by their SMILES.

For the experiment, the target named is T1, recombinant human Cathepsin K (Homo sapiens, UniProt P43235).
T1 sequence (P43235 115-329): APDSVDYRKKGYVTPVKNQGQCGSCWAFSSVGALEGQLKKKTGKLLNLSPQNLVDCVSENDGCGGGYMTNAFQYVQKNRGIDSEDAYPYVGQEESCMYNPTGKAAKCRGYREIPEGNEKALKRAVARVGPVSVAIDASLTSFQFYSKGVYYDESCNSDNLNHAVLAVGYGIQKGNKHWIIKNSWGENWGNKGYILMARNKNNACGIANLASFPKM
Kind of experiment: Cathepsin K activity: inhibition of recombinant human Cathepsin K (fluorogenic substrate Z-Phe-Arg-AMC). The following applies: sodium acetate pH5.5, fluorescence at 10 minutes, read-out: pIC50 (negative logarithm of the IC50 concentration) for inhibition of human cathepsin K (converted). Format: biochemical. As for the experimental part:
10µl of a 1mg/l solution of activated recombinant human cathepsin K, in assay buffer, is then added to the well, yielding a final inhibitor concentration of 10µM. • Enzyme activity is determined by measuring the fluorescence of the liberated aminomethylcoumarin at […] using 390nm excitation, at 10 minutes. Percentage enzyme activity is calculated by comparison of this activity to that of a solution containing no inhibitor. Compounds are subsequently subjected to a dose response curve analysis in order to determine IC50 values for active compounds (where IC50 is the concentration of test compound causing 50 % inhibition of the enzymatic activity). Compounds of the invention typically have a pIC50 (negative logarithm of the IC50 concentration) for inhibition of human cathepsin K of more than 6, preferably more than 7 and most preferably a pIC50 of more than 8, such as for the compounds of Examples 1, 2a, 2b, 3, 5, 6, 8, 12, 14, 13, 16k, 16n, 16o, 17, 22a, 22b, 22c

On to `CC(C)N1CCN(c2cc(-c3cccc(C(F)(F)F)c3)nc(C#N)n2)CC1` [Example 3, 4-(4-Isopropyl-piperazin-1-yl)-6-(trifluoromethyl-phenyl)-pyrimidine-2-carbonitrile], for which the IC50 was below 10 nM.
